Publication PMC8151655, “Some Dietary Phenolic Compounds Can Activate Thyroid Peroxidase and Inhibit Lipoxygenase-Preliminary Study in the Model Systems” (International Journal of Molecular Sciences, 2021)

T1: thyroid peroxidase (TPO) (Sus scrofa, UniProt P09933)
T1 construct: The frozen thyroid gland was minced with a fork; from tissue; host or cells: porcine thyroid gland (homogenate, centrifuged, salted out to 60%)
T1 sequence (P09933 15-926): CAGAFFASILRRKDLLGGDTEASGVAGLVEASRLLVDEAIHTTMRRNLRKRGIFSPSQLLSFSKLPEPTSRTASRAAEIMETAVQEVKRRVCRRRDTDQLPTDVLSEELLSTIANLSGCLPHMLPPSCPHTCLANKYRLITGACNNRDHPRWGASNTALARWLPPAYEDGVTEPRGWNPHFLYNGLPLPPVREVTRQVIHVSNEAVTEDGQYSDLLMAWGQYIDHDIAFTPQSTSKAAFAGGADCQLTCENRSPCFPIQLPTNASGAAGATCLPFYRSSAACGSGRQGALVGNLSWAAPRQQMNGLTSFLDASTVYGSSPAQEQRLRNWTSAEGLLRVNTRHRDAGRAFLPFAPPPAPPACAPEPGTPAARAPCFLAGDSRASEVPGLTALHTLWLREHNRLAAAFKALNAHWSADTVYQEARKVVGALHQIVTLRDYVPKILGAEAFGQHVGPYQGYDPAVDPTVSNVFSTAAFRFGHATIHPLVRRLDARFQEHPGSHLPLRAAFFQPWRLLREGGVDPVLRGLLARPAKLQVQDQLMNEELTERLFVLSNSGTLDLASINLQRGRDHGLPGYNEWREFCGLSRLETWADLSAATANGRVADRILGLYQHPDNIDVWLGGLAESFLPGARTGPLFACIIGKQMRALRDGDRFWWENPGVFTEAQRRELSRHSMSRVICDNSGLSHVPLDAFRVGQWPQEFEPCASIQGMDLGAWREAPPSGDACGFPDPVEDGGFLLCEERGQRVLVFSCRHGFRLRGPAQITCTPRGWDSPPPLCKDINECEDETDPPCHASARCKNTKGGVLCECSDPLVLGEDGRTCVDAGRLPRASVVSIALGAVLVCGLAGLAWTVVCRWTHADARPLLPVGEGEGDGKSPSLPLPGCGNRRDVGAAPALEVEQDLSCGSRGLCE

T2: soybean lipoxygenase type 1-B (LOX) (Glycine max, UniProt P08170)
T2 construct: purchased Sigma-Aldrich Company (Poznan, Poland)
T2 sequence (P08170 1-839): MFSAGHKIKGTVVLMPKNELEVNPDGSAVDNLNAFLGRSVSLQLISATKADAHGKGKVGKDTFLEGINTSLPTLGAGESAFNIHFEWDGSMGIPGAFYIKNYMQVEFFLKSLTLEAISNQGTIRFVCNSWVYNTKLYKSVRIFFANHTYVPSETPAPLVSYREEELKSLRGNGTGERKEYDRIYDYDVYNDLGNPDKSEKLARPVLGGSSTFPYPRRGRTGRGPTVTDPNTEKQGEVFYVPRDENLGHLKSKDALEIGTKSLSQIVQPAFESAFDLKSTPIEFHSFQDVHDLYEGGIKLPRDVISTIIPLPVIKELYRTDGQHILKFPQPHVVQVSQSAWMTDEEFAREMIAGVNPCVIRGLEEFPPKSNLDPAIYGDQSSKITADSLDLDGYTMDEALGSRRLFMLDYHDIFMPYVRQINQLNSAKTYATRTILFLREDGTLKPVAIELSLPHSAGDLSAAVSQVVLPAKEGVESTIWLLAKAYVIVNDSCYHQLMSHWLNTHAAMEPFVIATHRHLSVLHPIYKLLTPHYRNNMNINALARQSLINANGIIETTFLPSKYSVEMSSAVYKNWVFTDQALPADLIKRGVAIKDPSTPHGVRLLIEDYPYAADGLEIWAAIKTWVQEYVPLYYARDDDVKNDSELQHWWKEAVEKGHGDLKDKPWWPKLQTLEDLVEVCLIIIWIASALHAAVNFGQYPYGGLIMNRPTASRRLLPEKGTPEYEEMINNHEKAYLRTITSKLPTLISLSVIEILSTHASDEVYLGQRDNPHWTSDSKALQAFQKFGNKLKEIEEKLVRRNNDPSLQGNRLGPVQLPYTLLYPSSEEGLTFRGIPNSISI

B1: thyroid peroxidase (TPO) (Sus scrofa) (protein)
chain: T1 sequence (P09933 15-926)
notes: The frozen thyroid gland was minced with a fork; from tissue; host or cells: porcine thyroid gland (homogenate, centrifuged, salted out to 60%)

Legend:
[1] = biological target: T1, thyroid peroxidase (TPO); assay: TPO assay (guaiacol oxidation, activation kinetics); assay type: biochemical, Porcine; details: n = 9, read-out: AC50 (concentration resulting in 50% activation)
Protocol: (§1) The assay was prepared according to Jomaa et al., with some modifications. Porcine thyroid glands were purchased at a slaughterhouse (Lublin, Poland) and stored at −20 °C until used. The frozen thyroid gland was minced with a fork. The mince was suspended in a buffer containing 0.25 M sucrose, 2 mM tris–HCl, 100 mM KCl, 40 mM NaCl and 10 mM MgCl2 (pH 7.4) and homogenized using Philips homogenizer. The thyroid gland was centrifuged two times at 4000 RPM per 15 min at a temperature + 4 °C. The enzyme protein was then salted out to 60%. The supernatant was stored at − 20 °C until used.
(§2) The assay was used according to Jomaa et al., with some modification. The measurement was made using a plate spectrophotometer (BioTek, Model Epoch2TC, Winooski, VT, USA) in 96–well plates at a wavelength of 470 nm. Absorbance readings were recorded every minute for a total of 3 min at 37 °C. TPO activity is expressed as a change of absorption per minute. All measurements were performed in three replicates. The AC50 (activator concentration) values were calculated at fitted models as the concentration of the tested compound providing 50% of the activation based on a dose-dependent mode of action.

[2] = biological target: T2, soybean lipoxygenase type 1-B (LOX); assay: Inhibition of lipoxygenase activity (LOXI) with linoleic acid as substrate; assay type: biochemical; details: for Mode of Inhibition: Lineweaver-Burk, linoleic acid substrate
Protocol: Measurement was made at a wavelength of 234 nm. One unit of LOX activity was defined as an increase in absorbance of 0.001 per minute at 234 nm. All measurements were performed in four replicates.

[3] = ABTS radical scavenging assay; details: 15 min incubation at room temperature, n = 9; read-out: IC50 ABTS radical scavenging ability
Protocol: ABTS radical scavenging activity was determined according to Re et al. with slight modifications using a microplate spectrophotometer (BioTek, Model Epoch2TC, Winooski, VT, USA) after 15 min of incubation at room temperature.

[4] = system: LOX; details: different concentration than in the presented study; cited from earlier work
[5] = design: method as in earlier work; details: cited from earlier work
[6] = system: LOX; design: method as in doi:10.3390/app9030568; details: previous studies; cited from earlier work
[7] = FA perfused as a free pure compound in the rat intestine; cited from earlier work
[8] = design: method as in PMID 10730826; details: humans, FA in its free form, for example from beer; cited from earlier work
[9] = blood samples of rabbits; cited from earlier work
[10] = substrate: COc1ccccc1O; assay: TPO assay (guaiacol oxidation, activation kinetics); assay type: biochemical, Porcine; details: other: TPO substrate guaiacol, n = 9; pH 7.4
Protocol: as §1, §2

Row | Molecule | AC50 [1] [µM] | IC50 [2] [µM] | Ki [2] [µM] | Mode of Inhibition [2] | IC50 [3] [µM] | LOX inhibition [4] [%] | Oral bioavailability [5] | Km ([2]; LOX substrate linoleic acid, read-out: Km without Inhibitor) [µM] | Mode of LOX inhibition [6] | Bioavailability [7] | Urinary excretion [8] | Absolute bioavailability [9] [%] | Km [10] [µM]
1 | O=C(O)/C=C/c1ccccc1 [trans–cinnamic acid, trans-cinnamic acid] | 100 ± 5 | 9 ± 0.4 | 9 ± 0.4 | uncompetitive | 2120 ± 106 | 66.6 | low |  |  |  |  |  | 
2 | CCCCC/C=C\C/C=C\CCCCCCCC(=O)O [Linoleic acid, reference compound] |  |  |  |  |  |  |  | 7 ± 0.3 |  |  |  |  | 
3 | COc1cc(/C=C/C(=O)O)ccc1O [Ferulic acid, ferulic acid] | 390 ± 19 | 27 ± 1.3 | 8 ± 0.4 | uncompetitive | 410 ± 20 | 74.4 |  |  | competitive | about 50% | 19–98% |  | 
4 | COc1cc(C(=O)O)cc(OC)c1O [Syringic acid, syringic acid] | 690 ± 34 | 9 ± 0.4 | 5 ± 0.3 | uncompetitive | 220 ± 11 |  |  |  |  |  |  | 86.27 | 
5 | B1 |  |  |  |  |  |  |  |  |  |  |  |  | 60 ± 3
